From patent publication US7816074B2, “α4 β2 δGABA-A receptors as a strategy for PMS and alcoholism” (priority 2003, dated 2010)

Experiments:
α4β2δ GABAA receptors = target: T1, α4β2δ GABAA receptors (UniProt O14764+P63138+Q9D6F4); experiment: Two-electrode voltage-clamp of recombinant GABAA receptors in oocytes; format: cell-based; conditions: 1 mM ethanol
T1 construct: expressed in transfected cells

[1] = system: α1β2δ receptors (oocytes injected with α1+β2+δ); format: cell-based, rat α1, rat β2, human δ, expressed in Xenopus laevis oocytes; conditions: oocytes injected with α1+β2+δ
Excerpt: Plasmids with inserts encoding GABAA receptor subunit sequence for rat α1 (62), rat β2 (83), rat α2 (62), rat α5 (62), mouse α4 (37), mouse β3 (82), rat β1 (83), rat γ2S (63), human δ (12), and human ε (11) were produced by subcloning each separately into an appropriate cloning vehicle such as PCDM8, pCDNA3.1 or pGHEMHE vectors (Invitrogen, Carlsbad Calif.) using a T7 promoter and standard subcloning techniques (59). Plasmids were linearized with an appropriate restriction enzyme at a site 3′ to the insert and cRNAs were synthesized using T3 or T7 polymerase (mMessage mMachine, Ambion, Tex.). The size of the cRNA was verified and RNA was quantified by ethidium bromide staining after electrophoresis on 1% agarose gels.
The preparation, injection, and maintenance of oocytes were carried out as described previously (78). Oocytes were injected with receptor subunit cRNAs (2 to 20 ng) in the following ratios: α1:β1:γ2S, α1:β2:γ2S and α1:β1:ε1, 1:1:1; α2:β1:γ2S, α5:β1:γ2S, α4:β1:γ2S, and α4:β2:γ2S, 10:1:1; α4:β1:δ, α4:β2:δ, α4:β3δ, 10:1:10; α1:β2:δ, 1:1:10 or 1:0.5:3; α1:β1:δ, 1:1:10 or 1:0.5:3; α2:β1:δ and α2:β2:δ, 1:0.5:3; α1:β1, α1:β2, α2:β1, α2:β2, β2:γ2S and α4δ, 1:1, α4:β1, α4:β2, α4:β3, 10:1, β2δ, 1:10.
Voltage-clamp recording was carried out 1 to 3 days after injection of cRNAs. Electrodes were filled with 3 M KCl and had resistances of 0.4-4 MΩ. Oocytes were positioned in a small Perspex chamber and continuously superfused with a saline solution (100 mM NaCl, 2 mM KCl, 1.8 mM CaCl2, 10 mM HEPES, pH 7.5). Agonists and modulators were both applied in the same saline solution. Oocytes were voltage-clamped at −70 mV and macroscopic currents were recorded with a two-electrode voltage-clamp using a Warner Instruments OC-725 amplifier as described previously (79). Currents were recorded on a chart recorder or by using Axograph on a Macintosh computer.
Other subunits (α1, α2, β1, β2) were tested for co-expression with the δ subunit. […]

[2] = system: GABAA receptors of acutely isolated CA1 hippocampal pyramidal cells; conditions: ethanol 1-3 mM, but not higher (>10 mM); after progesterone withdrawal (ref. 67); cited from earlier work
[3] = system: GABAA receptors of acutely isolated CA1 hippocampal pyramidal cells; experiment: Whole cell patch clamp, ethanol or THIP effect on GABA-gated current; format: cell-based, rat; conditions: for potentiation of GABA-gated currents: progesterone-withdrawal model; for potentiation of GABA-gated responses: after progesterone withdrawal
Method: Pyramidal neurons were acutely dissociated from CA1 hippocampus and GABA-gated Cl^− currents analyzed using whole cell patch clamp procedures as previously described (67). Briefly, tissue was digested at 32° C. for 50-60 minutes under 100% O2 in PIPES-buffered saline containing (in mM): NaCl 120, KCl 5, CaCl2 1, MgCl2 1, D-glucose 25, PIPES 20 and trypsin (type XI, sigma) 0.8 mg/ml, pH 7.0. After 1 hour of enzyme-free incubation at room temperature, tissue was dissociated by trituration in 1 ml of 20 mM HEPES-buffered DMEM which was replaced by recording medium after transfer to the recording chamber. GABA-gated currents were recorded at room temperature (20-25° C.) at a holding potential of −50 mV in a bath containing (in mM): NaCl 120, CsCl 5, CaCl2 2, MgCl2 1, TEA Cl 15, 4-aminopyridine 5, HEPES 10 and glucose 25, pH 7.4, 320 mOsm/kg H2O. The pipette solution contained (in mM): N-methyl-D-glucamine chloride 120, Cs4BAPTA 5 and Mg-ATP 5. The ATP regeneration system Tris phosphocreatine (20 mM) and creatine kinase were added to minimize GABA rundown. All drugs were obtained from Sigma Chemical Co, (St. Louis, Mo.), except for BAPTA (Calbiochem, San, Diego, Calif.).
Peak currents were calculated for all drug concentrations as relative to the current gated by 10 μM GABA alone using the equation: ([peak current: GABA+ETOH]−[peak current: GABA alone])/[peak current: GABA alone]. Currents were recorded using an Axopatch 1D amplifier (Axon Instruments) filtered at 2 kHz (four-pole Bessel filter) and detected at 500 Hz (pClamp 5.1).
Following progesterone withdrawal or control conditions, pyramidal cells were acutely isolated from CA1 hippocampus as described (65,64). GABA-gated Cl^− currents were recorded using whole cell patch clamp techniques at a holding potential of −50 mV.

T1 sequence (Q9D6F4 36-552): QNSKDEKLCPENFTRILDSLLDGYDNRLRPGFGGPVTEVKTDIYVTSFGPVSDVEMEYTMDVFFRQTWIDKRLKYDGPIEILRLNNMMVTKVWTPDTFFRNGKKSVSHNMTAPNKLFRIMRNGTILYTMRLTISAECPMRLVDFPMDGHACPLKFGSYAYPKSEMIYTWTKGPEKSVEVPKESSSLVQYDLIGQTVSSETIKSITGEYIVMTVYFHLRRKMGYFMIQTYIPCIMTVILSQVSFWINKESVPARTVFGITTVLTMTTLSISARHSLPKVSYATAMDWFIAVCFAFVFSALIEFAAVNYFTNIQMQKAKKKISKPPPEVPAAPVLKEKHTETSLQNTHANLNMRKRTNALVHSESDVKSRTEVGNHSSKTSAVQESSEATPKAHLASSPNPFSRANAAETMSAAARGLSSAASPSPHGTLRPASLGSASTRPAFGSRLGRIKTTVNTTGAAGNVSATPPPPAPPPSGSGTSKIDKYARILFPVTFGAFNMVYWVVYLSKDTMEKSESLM
T1 sequence (P63138 25-474 limits assumed): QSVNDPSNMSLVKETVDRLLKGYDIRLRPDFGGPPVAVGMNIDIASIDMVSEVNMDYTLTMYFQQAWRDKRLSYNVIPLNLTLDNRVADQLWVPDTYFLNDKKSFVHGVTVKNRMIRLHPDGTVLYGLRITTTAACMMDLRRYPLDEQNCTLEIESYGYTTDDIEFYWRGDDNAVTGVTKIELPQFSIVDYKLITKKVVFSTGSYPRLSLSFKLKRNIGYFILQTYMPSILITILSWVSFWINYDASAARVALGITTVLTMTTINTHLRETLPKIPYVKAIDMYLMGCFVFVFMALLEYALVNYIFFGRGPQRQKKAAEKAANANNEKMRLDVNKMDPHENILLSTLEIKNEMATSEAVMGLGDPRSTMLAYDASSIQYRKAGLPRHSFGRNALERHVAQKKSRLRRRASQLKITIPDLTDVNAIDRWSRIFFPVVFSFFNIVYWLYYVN
T1 sequence (O14764 17-452 limits assumed): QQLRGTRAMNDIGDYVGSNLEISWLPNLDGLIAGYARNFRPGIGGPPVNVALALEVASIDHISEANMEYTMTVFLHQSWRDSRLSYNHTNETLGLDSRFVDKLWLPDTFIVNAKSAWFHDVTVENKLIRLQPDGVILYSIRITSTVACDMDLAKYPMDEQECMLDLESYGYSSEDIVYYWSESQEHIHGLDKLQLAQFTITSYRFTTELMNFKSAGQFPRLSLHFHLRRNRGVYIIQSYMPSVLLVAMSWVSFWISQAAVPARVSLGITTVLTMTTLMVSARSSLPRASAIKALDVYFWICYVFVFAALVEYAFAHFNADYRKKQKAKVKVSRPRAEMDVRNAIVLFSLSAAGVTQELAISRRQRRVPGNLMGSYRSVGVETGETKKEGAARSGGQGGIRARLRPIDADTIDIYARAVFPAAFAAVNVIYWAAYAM

## CCO [ethanol]
α4β2δ GABAA receptors
  increase of GABA-gated currents at α4β2δ receptors: 45±11%
[1]
  responses to GABA in presence of alcohol, % of control: 88-95 % of control
[2]
  effect on GABA-gated current of isolated hippocampal neurons: potentiated
[3]; 1 mM alcohol, progesterone withdrawal with α4 expression suppressed
  GABA-modulatory effects of alcohol: prevented
[3]; 1 mM alcohol
  potentiation of GABA-gated currents: 81±21%
[3]; 3 mM ethanol with 10 μM GABA
  potentiation of GABA-gated responses: 75±10%
[3]; 10 mM and greater alcohol
  potentiation of GABA-gated currents: not as effective
[3]; 20 mM ethanol
  potentiation of GABA-gated responses: ineffective
[3]; 3 or 20 mM ethanol, cells from control animals
  effect on GABA responses: neither concentration produced an effect
